Test [1] addresses Toll-like receptor 2 (Homo sapiens) (UniProt O60603). Put plainly: Inhibition of human TLR2 at 1 uM relative to control.
For test [2], the target named is Receptor-interacting serine/threonine-protein kinase 2 (Homo sapiens) (UniProt O43353). Put plainly: Inhibition of RIP2 (unknown origin) at 10 uM relative to control.
For test [3], the target named is Toll-like receptor 4 (Homo sapiens) (UniProt O00206). Put plainly: Inhibition of human TLR4 at 1 uM relative to control.
For test [4], the target named is T1, Nucleotide-binding oligomerization domain-containing protein 1 (Mus musculus, UniProt Q8BHB0).
T1 sequence (Q8BHB0 whole entry): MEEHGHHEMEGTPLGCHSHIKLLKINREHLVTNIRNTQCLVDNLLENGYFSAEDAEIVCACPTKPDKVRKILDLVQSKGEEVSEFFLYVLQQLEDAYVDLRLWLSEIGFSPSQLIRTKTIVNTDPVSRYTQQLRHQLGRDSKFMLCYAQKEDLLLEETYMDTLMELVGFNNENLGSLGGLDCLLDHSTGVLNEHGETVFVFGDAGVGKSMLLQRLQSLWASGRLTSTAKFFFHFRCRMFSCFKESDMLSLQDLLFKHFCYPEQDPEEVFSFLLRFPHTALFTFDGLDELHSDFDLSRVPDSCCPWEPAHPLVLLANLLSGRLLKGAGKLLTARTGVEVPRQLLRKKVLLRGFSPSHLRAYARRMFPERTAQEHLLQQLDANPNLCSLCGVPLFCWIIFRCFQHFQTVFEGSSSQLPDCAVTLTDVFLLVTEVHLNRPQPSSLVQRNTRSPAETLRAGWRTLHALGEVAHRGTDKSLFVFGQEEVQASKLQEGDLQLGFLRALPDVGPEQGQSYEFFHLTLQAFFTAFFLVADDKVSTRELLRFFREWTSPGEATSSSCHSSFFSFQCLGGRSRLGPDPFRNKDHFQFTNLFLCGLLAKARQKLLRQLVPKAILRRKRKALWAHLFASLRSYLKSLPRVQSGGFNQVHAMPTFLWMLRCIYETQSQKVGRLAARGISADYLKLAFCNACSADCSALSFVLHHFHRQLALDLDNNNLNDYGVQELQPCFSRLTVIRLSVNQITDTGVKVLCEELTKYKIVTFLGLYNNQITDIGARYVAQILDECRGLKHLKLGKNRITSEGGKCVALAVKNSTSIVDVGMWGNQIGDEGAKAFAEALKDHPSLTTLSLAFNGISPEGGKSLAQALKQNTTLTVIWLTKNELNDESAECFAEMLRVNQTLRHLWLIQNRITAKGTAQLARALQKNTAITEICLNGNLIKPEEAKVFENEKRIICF
Put plainly: Antagonist activity at mouse NOD1 expressed in HEK-Blue cells assessed as decrease in SEAP secretion incubated for 3 hrs followed by C12-iE-DAP stimulation for 20 hrs by spectrophotometry. It counts as cell-based, HEK-Blue mNOD1.

Test [5] deals with T2, Nucleotide-binding oligomerization domain-containing protein 2 (Mus musculus) (UniProt Q8K3Z0).
T2 sequence (whole entry): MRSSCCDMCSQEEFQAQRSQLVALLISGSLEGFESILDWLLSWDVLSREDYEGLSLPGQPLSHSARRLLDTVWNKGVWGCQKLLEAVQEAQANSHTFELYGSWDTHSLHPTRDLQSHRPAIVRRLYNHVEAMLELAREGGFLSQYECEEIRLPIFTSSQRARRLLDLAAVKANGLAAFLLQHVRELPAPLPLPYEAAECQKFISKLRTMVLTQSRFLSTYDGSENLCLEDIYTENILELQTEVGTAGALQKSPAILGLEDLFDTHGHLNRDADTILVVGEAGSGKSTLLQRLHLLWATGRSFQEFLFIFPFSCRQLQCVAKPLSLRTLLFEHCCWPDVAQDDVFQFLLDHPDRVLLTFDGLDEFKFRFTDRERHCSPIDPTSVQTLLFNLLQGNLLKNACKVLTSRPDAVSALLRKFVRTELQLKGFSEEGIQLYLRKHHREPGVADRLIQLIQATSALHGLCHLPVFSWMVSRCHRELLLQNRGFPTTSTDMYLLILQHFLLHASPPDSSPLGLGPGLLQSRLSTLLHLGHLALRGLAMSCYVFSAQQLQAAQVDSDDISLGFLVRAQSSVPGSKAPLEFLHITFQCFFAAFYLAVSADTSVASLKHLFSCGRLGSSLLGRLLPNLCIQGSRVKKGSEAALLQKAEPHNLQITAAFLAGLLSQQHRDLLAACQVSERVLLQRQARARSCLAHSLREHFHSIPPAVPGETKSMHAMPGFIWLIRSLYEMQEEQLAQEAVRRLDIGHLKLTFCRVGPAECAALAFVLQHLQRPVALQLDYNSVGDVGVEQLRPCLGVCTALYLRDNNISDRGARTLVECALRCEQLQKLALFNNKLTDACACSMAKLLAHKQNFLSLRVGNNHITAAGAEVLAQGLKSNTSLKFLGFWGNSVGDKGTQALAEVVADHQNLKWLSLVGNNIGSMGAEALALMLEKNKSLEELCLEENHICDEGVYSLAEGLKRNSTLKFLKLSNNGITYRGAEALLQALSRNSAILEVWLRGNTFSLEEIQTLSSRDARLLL
Put plainly: Inhibition of mouse NOD2 at 1 uM relative to control.

The record followed here is ChEMBL document CHEMBL6074678, “Selectively Antagonizing the NOD1-Mediated Inflammatory Signaling Pathway Mitigates the Gastric Inflammation Induced by Helicobacter pylori Infection” (J Med Chem, 2024).

Receptor-interacting serine/threonine-protein kinase 2 (Homo sapiens), sequence (O43353 whole entry): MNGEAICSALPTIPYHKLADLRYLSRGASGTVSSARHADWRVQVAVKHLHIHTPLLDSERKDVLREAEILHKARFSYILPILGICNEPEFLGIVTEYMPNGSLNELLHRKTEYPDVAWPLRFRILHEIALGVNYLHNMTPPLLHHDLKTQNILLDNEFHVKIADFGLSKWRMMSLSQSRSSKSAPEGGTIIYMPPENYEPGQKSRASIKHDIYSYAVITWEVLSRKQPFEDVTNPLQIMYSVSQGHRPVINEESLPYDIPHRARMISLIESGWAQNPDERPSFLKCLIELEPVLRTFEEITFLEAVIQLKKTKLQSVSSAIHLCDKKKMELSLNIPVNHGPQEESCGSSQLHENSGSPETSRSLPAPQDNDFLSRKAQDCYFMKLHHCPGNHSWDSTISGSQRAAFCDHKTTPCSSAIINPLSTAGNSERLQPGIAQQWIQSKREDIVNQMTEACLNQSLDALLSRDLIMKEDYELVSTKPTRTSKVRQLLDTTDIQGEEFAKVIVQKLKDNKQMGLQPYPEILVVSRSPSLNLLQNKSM
Toll-like receptor 2 (Homo sapiens), sequence (O60603 whole entry): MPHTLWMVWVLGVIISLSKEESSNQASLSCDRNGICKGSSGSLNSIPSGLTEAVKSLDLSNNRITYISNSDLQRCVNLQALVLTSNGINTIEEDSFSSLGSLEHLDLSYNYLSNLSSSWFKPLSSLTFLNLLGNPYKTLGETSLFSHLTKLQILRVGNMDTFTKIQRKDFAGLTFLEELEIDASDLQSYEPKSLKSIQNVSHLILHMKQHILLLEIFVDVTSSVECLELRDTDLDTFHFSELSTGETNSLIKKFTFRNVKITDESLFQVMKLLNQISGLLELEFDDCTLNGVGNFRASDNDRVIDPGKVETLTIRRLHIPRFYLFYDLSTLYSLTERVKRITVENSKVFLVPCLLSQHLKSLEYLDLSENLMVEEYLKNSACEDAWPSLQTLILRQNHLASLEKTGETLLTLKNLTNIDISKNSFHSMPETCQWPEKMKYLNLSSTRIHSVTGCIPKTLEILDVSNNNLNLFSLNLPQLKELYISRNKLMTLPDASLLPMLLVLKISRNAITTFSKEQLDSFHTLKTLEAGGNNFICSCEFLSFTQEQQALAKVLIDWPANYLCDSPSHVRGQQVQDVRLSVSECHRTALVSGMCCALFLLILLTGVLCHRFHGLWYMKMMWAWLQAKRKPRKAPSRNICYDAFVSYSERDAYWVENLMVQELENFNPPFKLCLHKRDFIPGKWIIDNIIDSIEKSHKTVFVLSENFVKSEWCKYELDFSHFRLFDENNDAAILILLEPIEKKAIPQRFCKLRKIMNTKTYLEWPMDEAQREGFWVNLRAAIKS
Toll-like receptor 4 (Homo sapiens), sequence (O00206 whole entry, the tested form may be a part): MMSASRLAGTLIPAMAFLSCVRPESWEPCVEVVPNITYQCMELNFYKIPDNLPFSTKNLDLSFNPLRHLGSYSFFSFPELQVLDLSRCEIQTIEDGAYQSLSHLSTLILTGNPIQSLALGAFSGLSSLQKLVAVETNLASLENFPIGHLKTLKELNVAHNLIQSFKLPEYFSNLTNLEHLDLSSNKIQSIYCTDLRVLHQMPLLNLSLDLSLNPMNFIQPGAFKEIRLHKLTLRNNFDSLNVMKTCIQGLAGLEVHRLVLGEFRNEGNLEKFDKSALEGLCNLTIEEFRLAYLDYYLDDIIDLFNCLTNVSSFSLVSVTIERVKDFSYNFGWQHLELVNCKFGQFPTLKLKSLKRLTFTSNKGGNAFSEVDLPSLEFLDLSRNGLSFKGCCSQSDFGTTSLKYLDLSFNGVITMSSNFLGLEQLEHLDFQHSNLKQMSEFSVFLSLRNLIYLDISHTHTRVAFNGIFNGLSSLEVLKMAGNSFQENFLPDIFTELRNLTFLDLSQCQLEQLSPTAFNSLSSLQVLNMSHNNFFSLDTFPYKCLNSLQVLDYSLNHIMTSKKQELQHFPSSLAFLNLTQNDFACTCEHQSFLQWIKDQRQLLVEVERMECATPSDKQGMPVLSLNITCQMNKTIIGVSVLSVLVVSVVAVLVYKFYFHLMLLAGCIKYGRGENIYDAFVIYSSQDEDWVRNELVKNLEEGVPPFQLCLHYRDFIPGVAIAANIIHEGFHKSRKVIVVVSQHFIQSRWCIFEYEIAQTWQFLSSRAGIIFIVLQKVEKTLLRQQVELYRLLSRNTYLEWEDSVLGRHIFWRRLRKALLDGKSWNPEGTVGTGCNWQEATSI

Consider `CS(=O)(=O)c1ccc2nc(Cl)n(-c3ccc(Cl)c(NS(=O)(=O)c4ccc5ncsc5c4)c3)c(=O)c2c1`, for which the inhibition in test [1] was 52.3%; in test [2] it was 10.5%; in test [3], 15.8%; in test [5] it was < 10%. Also, in test [4], the IC50 was determined as 58 nM.

On to `N#Cc1ccc2nc(Cl)n(-c3ccc(Cl)c(NS(=O)(=O)c4c(F)cccc4F)c3)c(=O)c2c1`, for which the inhibition is 8.5% in test [1], < 10% in test [2], < 10% in test [3] and 20.2% in test [5]. Also, in test [4], the half-inhibitory concentration (IC50) is 54 nM.

As for `CS(=O)(=O)c1ccc2nc(Cl)n(-c3ccc(Cl)c(NS(=O)(=O)c4c(F)cccc4F)c3)c(=O)c2c1`, the inhibition was determined as 12.8% in test [1], 11.4% in test [2], 10% in test [3] and 21.9% in test [5]. Also, the IC50 in test [4] was 32 nM.
